Tests used:
[1] = PTR-MS headspace release with various non-aqueous liquids (diols) at 0.05:100 (Example 3); format: physicochemical; conditions: ratio 0.05:100; for PTR-MS headspace release in 1,3-butanediol: non-aqueous liquid 1,3-butanediol; for PTR-MS headspace release in 1,3-butanediol / PTR-MS headspace release in 1,3-propanediol / PTR-MS headspace release in 1,4-butanediol / PTR-MS headspace release in 1,7-heptanediol / PTR-MS headspace release in Propylene glycol: diluted in water; for PTR-MS headspace release in 1,3-propanediol: non-aqueous liquid 1,3-propanediol; for PTR-MS headspace release in 1,4-butanediol: non-aqueous liquid 1,4-butanediol; for PTR-MS headspace release in 1,7-heptanediol: non-aqueous liquid 1,7-heptanediol; for PTR-MS headspace release in Propylene glycol: non-aqueous liquid propylene glycol
Method: […]. The flavoring was then diluted in water for analysis. The final concentration of each compound was held constant at 8 ppm except furfuryl mercaptan was included at 1.6 ppm to maintain a constant flavor level in the resulting beverage while the non-aqueous liquid varied but the ratio of each compound to non-aqueous liquid was held constant at 0.05:100. A variety of non-aqueous liquids were evaluated, including 1,4-butandiol; 1,7-heptandiol; 1,3-butandiol, propylene glycol, and 1,3-propanediol.
Samples were analyzed by PTR-MS as described in Example 1.
Percent suppression was calculated by the following formula: (I1-3-diol−Ialternate diol)/Ialternate diol×100.

[2] = PTR-MS headspace release in neat solvent, solvent/solvent experiment (Example 5); format: physicochemical; parameters: key to Release Differences: “Z” indicates that 1,3-propanediol had higher equilibrium maximum (meaning more of the flavor was released in 1,3-propanediol); “P” indicates that propylene glycol had higher equilibrium maximum; “-” indicates no statistical difference (95% significance) between the two samples; conditions: 1.5 hrs equilibration; for Release Differences: 1,3-propanediol versus propylene glycol as sole solvent, 95% significance
Method: […]. Then the head space was analyzed as described above.
0.86 grams of the concentrate was added to 100 grams of either propylene glycol or 1,3-propanediol to provide a 1,3-propanediol diluted concentrate or propylene glycol diluted concentrate. The diluted concentrates were then further diluted as outlined in Table 10 below.
A 15 gram sample was weighed into a 4 oz vessel and analyzed at 1.5 hrs. of equilibration time as described in the method of Example 4.

[3] = not marked (est); cited from earlier work

| SMILES | PTR-MS headspace release in 1,3-butanediol [1] | PTR-MS headspace release in 1,3-propanediol [1] | PTR-MS headspace release in 1,4-butanediol [1] | PTR-MS headspace release in 1,7-heptanediol [1] | PTR-MS headspace release in Propylene glycol [1] | Percent suppression by 1,3-butanediol relative to 1,4-butanediol [1] [%] | Release Differences [2] | release in 1,3-propanediol versus propylene glycol, solvent/solvent [2] | logP (o/w) [3] |
| --- | --- | --- | --- | --- | --- | --- | --- | --- | --- |
| O=Cc1ccccc1 [Benzaldehyde] | 250.0 | 13.20 | 354.0 | 357.5 | 136.25 | −41.6 | P | – | – |
| CC=O [Acetaldehyde] | 157.0 | 104.00 | 196.5 | 206.5 | 165.85 | −25.2 | Z | released faster (as evidenced by higher headspace concentration) in 1,3-propanediol | −0.16 |
| CCCC(=O)OCC [Ethyl butyrate] | 141.5 | 46.20 | 239.3 | 223.5 | 40.20 | −69.10 | Z | – | – |

Source: US9883691B2, “Food and beverage products containing 1,3-propanediol and methods of modifying flavor release using 1,3-propanediol” (Kraft Foods Group Brands LLC, priority 2012, dated 2018)
